According to patent US20030059956A1, “Method to follow progression of kidney disease” (priority 2001, published 2003):

Test system: urinary TGF-β1
Experiment: Urinary TGF-β1 excretion in proteinuric patients, add-on losartan crossover trial on background lisinopril
Assay type: in vivo, human
Conditions: add-on losartan 50 mg/d for 4 weeks on lisinopril 40 mg/d
Protocol: Patients previously administered angiotensin-receptor blockers (ARBs) or with estimated creatinine clearances of less than 30 mumin were excluded. A separate group of 12 healthy volunteers with normal BP, normal albuminuria, and no history of kidney disease or diabetes served as the control group for urinary TGF-β1 levels.
The study was a two-period, crossover, randomized, controlled trial. Seventeen (17) patients were administered a sequence of either losartan, 50 mg/d, for 4 weeks, 2-week washout, and placebo for 4 weeks or placebo for 4 weeks, 2-week washout, and losartan, 50 mg/d, for 4 weeks. […] Twenty-four-hour urine was collected for protein, sodium, urea, creatinine, and urinary TGF-β1 measurement. Because standard therapy for patients with proteinuria and renal failure includes ACE inhibitors, ACE inhibitor therapy was not discontinued in any patient enrolled in the study.
Appropriate corrections for concentrations were made and values were expressed as TGF-β1 in picograms per milligram of creatinine. […] TGF-β expressed as TGF-β in picograms per milligram of creatinine was calculated as follows:
The normality assumption was tested with the Kolmogrov Smirnov statistic, and homogeneity of variances was tested using Lavene's test. […] Data were analyzed by two-way mixed-model analysis of variance with subjects as the random variable and drug or placebo assignment as the fixed variable. […]

CCCCc1nc(Cl)c(CO)n1Cc1ccc(-c2ccccc2-c2nn[nH]n2)cc1 [losartan]
reduction in urinary TGF-β1 levels (95% CI 16 to 55, P=0.017): 38%
urinary TGF-β1 level after losartan (geometric mean, pre-losartan level 13.3 (95% CI 11.4 to 15.5)): 8.2 pg/mg creatinine
